The target in assay [1] is T1, AR (Homo sapiens, UniProt P10275).
T1 sequence (P10275 1-920): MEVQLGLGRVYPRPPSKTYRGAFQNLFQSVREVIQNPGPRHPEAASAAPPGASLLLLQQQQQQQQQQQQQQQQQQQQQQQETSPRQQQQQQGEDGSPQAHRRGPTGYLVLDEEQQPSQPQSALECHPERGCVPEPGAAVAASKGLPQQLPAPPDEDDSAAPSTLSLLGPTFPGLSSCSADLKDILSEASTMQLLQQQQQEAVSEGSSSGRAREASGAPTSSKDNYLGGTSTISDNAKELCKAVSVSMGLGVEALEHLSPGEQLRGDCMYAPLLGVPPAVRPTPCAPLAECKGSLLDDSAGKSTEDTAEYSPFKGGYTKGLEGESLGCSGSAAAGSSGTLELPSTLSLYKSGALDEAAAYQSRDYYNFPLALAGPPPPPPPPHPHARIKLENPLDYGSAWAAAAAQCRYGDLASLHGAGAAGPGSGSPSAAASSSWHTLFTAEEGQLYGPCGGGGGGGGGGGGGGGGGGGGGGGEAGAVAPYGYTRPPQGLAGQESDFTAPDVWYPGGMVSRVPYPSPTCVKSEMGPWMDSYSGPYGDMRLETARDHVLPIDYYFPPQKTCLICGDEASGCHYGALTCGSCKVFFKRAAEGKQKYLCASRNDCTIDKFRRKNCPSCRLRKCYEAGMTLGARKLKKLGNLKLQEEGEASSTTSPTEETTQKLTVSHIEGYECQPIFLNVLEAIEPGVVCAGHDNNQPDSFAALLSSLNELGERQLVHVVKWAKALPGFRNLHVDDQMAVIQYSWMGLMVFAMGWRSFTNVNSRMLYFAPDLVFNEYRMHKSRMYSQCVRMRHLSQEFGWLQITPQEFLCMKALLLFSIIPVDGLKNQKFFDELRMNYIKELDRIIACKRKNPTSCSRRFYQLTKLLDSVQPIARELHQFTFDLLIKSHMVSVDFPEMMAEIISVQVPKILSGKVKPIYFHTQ
As to the kind of experiment: FRET-based AR conformation change reporter (CARY) in 3T3L1 adipose cells. The format is cell-based, murine. Set-up: Full length AR with cyan fluorescent protein (CFP) or yellow fluorescent protein (YFP) fused to either end (CARY); expressed in transfected cells. As to conditions: 3T3L1 adipose-derived cells. As for the experimental part: Creation of stable C-AR-Y reporter cell lines. Cell lines listed above were either transfected with a plasmid or a virus containing the CFP-AR-YFP construct preceding an IRES and hygromycin resistance gene and clonal stable cell lines selected. Qualification criteria for the transfected cell lines were described by Jones et al, ACS Chem Biol, 3(7):412-8 (2008).
Screen for AR-modulators. Screening was performed essentially as described by Jones et al, ACS Chem Biol, 3(7):412-8 (2008). Briefly, C-AR-Y reporter GTI-7 were transferred to 96 well plates and treated with library compounds for 24 hours. […] The compounds to be tested were from the NCI/DTP Open Chemical Repository's Approved Oncology Drugs Set II, Diversity Set II and Mechanistic Set. […] After 24 hours, medium was aspirated and FRET was measured as previously described using a monochromator-based fluorescence plate reader (M1000, Tecan, Inc.). Jones et al, ACS Chem Biol, 3(7):412-8 (2008). […]
In order to identify potential cell-type selective AR modulators, the FRET-based assay of AR conformation change was utilized. […] This produces an accurate and quantifiable read-out of AR activity. […] Candidate hits were then further evaluated by dose response. […] In addition to FRET, AR transcriptional activity was also assessed in several cell lines by transfecting cells with a luciferase reporter driven by the human PSA promoter. […]

Assay [2] has as its target T1, AR. The experiment in a line: Androgen-responsive luciferase reporter assay in ReNcell CX neuronal cells. The format is cell-based. Set-up: endogenous in cells; host or cells: ReNcell CX. As to conditions: FIG. 2B. The text has this:
Luciferase Reporter Assay. Cells were transfected using Lipofectamine Plus (Invitrogen) with a normalization plasmid (pRL-SV40, Promega) and an androgen responsive plasmid (MMTV-luciferase or PSA-luciferase) as described in Jones et al, ACS Chem Biol, 3(7):412-8 (2008), and, where indicated, with an shRNA plasmid targeting FOXM1 (adapted for mouse FOXM1 sequence targeting) a scrambled control shRNA plasmid, or ARQ24 or ARQ65 plasmids. Christensen et al, PLoS One, 8(1):e54556 (2013). The following day, cells and drugs were distributed to 96-well plates. 24 hours later, luciferase activity was assessed by a dual luciferase assay kit (Promega) on the Tecan plate reader. Samples were run in quadruplicates and a Student's t test was performed to determine significance, where p<0.05 was considered significant.
The ability of thiostrepton to inhibit AR activity in additional neuronal cells, including ReNcell CX cells PC12 cells, and in rat L6 skeletal muscle cells was examined (FIG. 2B). Donato et al, BMC Neurosci, 8:36 (2007); Yaffe, Proc Natl Acad Sci USA, 61(2):477-83 (1968).

Here are results for two compounds from patent US11167007B2, “FOXM1 modulators and uses thereof” (City of Hope, priority 2016, dated 2021).

Molecules are shown by their SMILES.

Consider `C=C(NC(=O)C(=C)NC(=O)c1csc(C2=N[C@@H]3c4csc(n4)[C@H]4NC(=O)c5csc(n5)[C@H]([C@](C)(O)[C@@H](C)O)NC(=O)[C@H]5CSC(=N5)/C(=C/C)NC(=O)[C@H]([C@@H](C)O)NC(=O)c5csc(n5)[C@]3(CC2)NC(=O)[C@H](C)NC(=O)C(=C)NC(=O)C(=C)NC(=O)[C@H](C(C)C)N[C@@H]2C=Cc3c([C@H](C)O)cc(nc3[C@H]2O)C(=O)O[C@@H]4C)n1)C(N)=O` [NSC285116, siomycin A], for which the “AR inhibitor activity in words” value on AR [1] is given as “little to no activity”. `C=C(NC(=O)C(=C)NC(=O)c1csc(C2=N[C@@H]3c4csc(n4)[C@H]4NC(=O)c5csc(n5)[C@H]([C@](C)(O)[C@@H](C)O)NC(=O)[C@H]5CSC(=N5)/C(=C/C)NC(=O)[C@H]([C@@H](C)O)NC(=O)c5csc(n5)[C@]3(CC2)NC(=O)[C@H](C)NC(=O)C(=C)NC(=O)[C@H](C)NC(=O)[C@H]([C@@H](C)CC)N[C@@H]2C=Cc3c([C@H](C)O)cc(nc3[C@H]2O)C(=O)O[C@@H]4C)n1)C(N)=O` [thiostrepton]: at AR [2], the “inhibition of AR activity (luciferase)” value is “inhibited AR activity”.
